Results as given in ChEMBL document CHEMBL1201862, “PubChem BioAssay data set” (2004).
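Cultured in 96-well plates, cells were exposed to test compound for 48 hours across five concentrations. Here, GI50 denotes the concentration required for 50% inhibition of growth.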 Calls of active or inactive are those of the source. No stated cut-off is given here; in the data, active = GI50 up to about 1.1 µM and inactive = higher.

Legend:
Assay in all cases: NCI tumour cell line growth inhibition, 48 h
[1] = test system: M14
[2] = test system: NCI-H460
[3] = test system: SK-MEL-5
[4] = test system: RPMI-8226
[5] = test system: K562
[6] = test system: SK-MEL-28
[7] = test system: 786-0
[8] = test system: SF-539
[9] = test system: HCT-116
[10] = test system: NCI-H522
[11] = test system: HCT-15
[12] = test system: SNB-19
[13] = test system: OVCAR-5
[14] = test system: COLO 205
[15] = test system: Malme-3M
[16] = test system: DU-145
[17] = test system: Hs-578T
[18] = test system: NCI/ADR-RES
[19] = test system: MDA-MB-231
[20] = test system: T47D

SMILES | GI50 [1] | GI50 [2] | GI50 [3] | GI50 [4] | GI50 [5] | GI50 [6] | GI50 [7] | GI50 [8] | GI50 [9] | GI50 [10] | GI50 [11] | GI50 [12] | GI50 [13] | GI50 [14] | GI50 [15] | GI50 [16] | GI50 [17] | GI50 [18] | GI50 [19] | GI50 [20]
COCNC(=NC#N)NCOC | > 100 µM (inactive) | > 100 µM (inactive) | > 100 µM (inactive) | > 49.3 µM (inactive) | > 64.6 µM (inactive) | > 100 µM (inactive) | > 47.2 µM (inactive) | > 100 µM (inactive) | > 65.9 µM (inactive) | > 100 µM (inactive) | > 42.9 µM | > 100 µM (inactive) | > 100 µM (inactive) | > 53.5 µM (inactive) | > 100 µM (inactive) | – | – | – | – | –
CC[C@H]1C=CCC[C@@]2(C[C@@H]3CC[C@H]4[C@@H](C(=O)OCCCCCCCCCCCCCCCC(=O)N(CCCNC(C)=O)C[C@H](CCNC(C)=O)OC(C)=O)[C@@]5(CCC[C@@H](C)O5)NC(=[N+]34)N2)O1 | 1.73 µM (inactive) | 1.6 µM (inactive) | 1.3 µM (inactive) | 0.227 µM (active) | 0.708 µM (active) | 1.28 µM (inactive) | 1.98 µM (inactive) | 1.48 µM (inactive) | 1.58 µM (inactive) | 1.24 µM (inactive) | 1.7 µM | 1.62 µM (inactive) | 1.51 µM (inactive) | 1.28 µM (inactive) | 1.54 µM (inactive) | 1.57 µM (inactive) | 1.93 µM (inactive) | > 10 µM (inactive) | – | –
Oc1ccccc1/C=C/c1csnn1 | > 100 µM (inactive) | > 69.7 µM (inactive) | > 100 µM (inactive) | > 100 µM (inactive) | > 100 µM (inactive) | > 100 µM (inactive) | > 31.6 µM (inactive) | > 100 µM (inactive) | 98.4 µM (inactive) | > 100 µM (inactive) | > 51.4 µM | > 100 µM (inactive) | > 100 µM (inactive) | > 100 µM (inactive) | > 100 µM (inactive) | – | – | – | – | –
COc1ccc(C2CC(c3ccc(NS(=O)(=O)c4cc([N+](=O)[O-])ccc4C)cc3)=NN2S(=O)(=O)c2cc([N+](=O)[O-])ccc2C)cc1 (stereo not given) | 41.1 µM (inactive) | 32.4 µM (inactive) | 42.2 µM (inactive) | 23.6 µM (inactive) | 36.1 µM (inactive) | > 100 µM (inactive) | 88.5 µM (inactive) | – | 32.7 µM (inactive) | 22.3 µM (inactive) | 36.2 µM | 61.2 µM (inactive) | > 100 µM (inactive) | 51.4 µM (inactive) | 34.8 µM (inactive) | > 100 µM (inactive) | – | 40.8 µM (inactive) | 43.6 µM (inactive) | 71.4 µM (inactive)
O=NN(CCCl)C(=O)N[C@H]1CC[C@H](CC(=O)O)CC1 | > 100 µM (inactive) | 45.2 µM (inactive) | > 100 µM (inactive) | 33.1 µM (inactive) | 60.3 µM (inactive) | > 100 µM (inactive) | 44 µM (inactive) | 26.1 µM (inactive) | > 100 µM (inactive) | 28 µM (inactive) | > 100 µM | 59.3 µM (inactive) | > 100 µM (inactive) | > 100 µM (inactive) | > 82.2 µM (inactive) | – | – | > 100 µM (inactive) | – | –
CN(C)c1ccc(/C=N/Nc2nc3ccccc3c(=O)n2-c2ccccc2)cc1 | 78 µM (inactive) | > 100 µM (inactive) | 56.9 µM (inactive) | – | > 100 µM (inactive) | > 100 µM (inactive) | 23.7 µM (inactive) | 30.4 µM (inactive) | 51.5 µM (inactive) | 44.5 µM (inactive) | > 100 µM | 34.9 µM (inactive) | > 100 µM (inactive) | > 100 µM (inactive) | 43.1 µM (inactive) | > 100 µM (inactive) | – | 63.1 µM (inactive) | 63 µM (inactive) | > 100 µM (inactive)
